The results in this text go back to ChEMBL document CHEMBL5385917, “Irpetones A and B, Anti-Osteoclastic Heptaketides from a Marine Mesophotic Zone Ircinia Sponge-Associated Fungus Irpex sp. NBUF088” (J Nat Prod, 2024).

Active and inactive are the calls of the source. No cut-off for these calls is given here.

Series [1] can be described thus: Cytotoxicity against mouse BMMC cells assessed as inhibition of cell growth incubated for 48 hrs by MTT assay. The class given is toxicity, cell-based. (In general: Tetrazolium dyes change colour on reduction, which living cells bring about.)
The test system of series [2] is BMMC. In words: Anti-osteoclastogenic activity in mouse BMMC cells assessed as inhibition of RANKL mediated osteoclast differentiation by TRAP activity. The class given is functional, cell-based.
In series [3] the test system is BMMC. In words: Inhibition of RANKL-induced JNK1/2 phosphorylation in mouse BMMC cells by Western blot analysis. The class given is cell-based. The conditions noted are these: dose 0.5-1.5 µM. On the technique in general: A western blot detects proteins with antibodies after separation by electrophoresis.
The target in series [4] is Mitogen-activated protein kinase 1 and 3 (ERK2 and ERK1) (Mus musculus) (UniProt P63085+Q63844). Put plainly: Inhibition of RANKL-induced ERK1/2 phosphorylation in mouse BMMC cells by Western blot analysis. The series is classed as cell-based. The settings on record: dose 0.5-1.5 µM.
Chain of Mitogen-activated protein kinase 1 and 3 (ERK2 and ERK1) (Mus musculus) (P63085 whole entry, looked up): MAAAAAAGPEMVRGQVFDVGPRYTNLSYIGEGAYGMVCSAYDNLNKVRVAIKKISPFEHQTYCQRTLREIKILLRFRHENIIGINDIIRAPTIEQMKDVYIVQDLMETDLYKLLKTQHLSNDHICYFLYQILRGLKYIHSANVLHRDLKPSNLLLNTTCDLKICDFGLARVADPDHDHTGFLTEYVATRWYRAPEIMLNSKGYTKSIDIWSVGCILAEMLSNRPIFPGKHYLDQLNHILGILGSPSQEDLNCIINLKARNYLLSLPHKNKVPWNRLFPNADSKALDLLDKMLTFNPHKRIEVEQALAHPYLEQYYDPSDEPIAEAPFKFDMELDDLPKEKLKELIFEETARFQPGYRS
Chain of Mitogen-activated protein kinase 1 and 3 (ERK2 and ERK1) (Mus musculus) (Q63844 whole entry, looked up): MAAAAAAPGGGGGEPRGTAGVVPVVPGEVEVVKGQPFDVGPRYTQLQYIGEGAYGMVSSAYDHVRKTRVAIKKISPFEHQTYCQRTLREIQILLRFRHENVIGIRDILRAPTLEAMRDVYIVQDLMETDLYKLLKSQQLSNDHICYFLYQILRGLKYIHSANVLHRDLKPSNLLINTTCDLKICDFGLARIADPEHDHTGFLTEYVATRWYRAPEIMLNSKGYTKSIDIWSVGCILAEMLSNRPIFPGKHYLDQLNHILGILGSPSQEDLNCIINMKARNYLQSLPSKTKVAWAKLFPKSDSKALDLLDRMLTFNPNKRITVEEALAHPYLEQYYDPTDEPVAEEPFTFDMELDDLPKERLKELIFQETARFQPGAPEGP
Series [5] has as its target MAP kinase p38 (Mus musculus) (UniProt P47811+O08911+Q9WUI1+Q9Z1B7). Put plainly: Inhibition of RANKL-induced p38 MAPK phosphorylation in mouse BMMC cells by Western blot analysis. The series is classed as cell-based. The conditions noted are these: dose 0.5-1.5 µM.
Series [6] in a line: Selectivity index, ratio of CC50 for cytotoxicity against mouse BMMC cells to IC50 for anti-osteoclastogenic activity in mouse BMMC cells. The settings on record: read-out: Ratio CC50/IC50. The series is classed as toxicity, cell-based.
Series [7] has as its system BMMC. In words: Inhibition of RANKL-induced NFkappaB signaling in mouse BMMC cells assessed as inhibition of NFkappab nuclear translocation at 5 to 10 uM by Western blot analysis. The series is classed as cell-based. The settings on record: dose 5-10 µM.

For the molecule `C[C@@H]1C=C2C=C[C@@](C)(O)[C@]3(C)C(=O)[C@@](O)(CO)O[C@@H](C1)[C@@H]23`, the CC50 (commonly the concentration that lowers cell viability or growth by half) at 48 h in series [1] was > 30 µM. Moreover, in series [2], the IC50 (usually the concentration that gives 50% inhibition) turned out to be 6.3 µM. Further, the inhibition result in series [3], in series [4] and in series [5] was “Dose-Dependent Effect” throughout. Also, the selectivity ratio in series [6] was > 4.8. In addition, the inhibition result in series [7] was “Active”.
